# Data taken from PubChem BioAssay (NCI).
#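 Five concentrations, 48 hours, 96-well plates. The concentration for 50% growth inhibition is given as GI50. TGI: total growth inhibition.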
# Tests used:
# Experiment in all cases: growth of human tumour cells (NCI), 48 h
# [1] = tested on: K-562 leukemia
# [2] = tested on: MALME-3M melanoma
# [3] = tested on: A498 renal
# [4] = tested on: HS 578T breast
# [5] = tested on: HCC-2998 colon
# [6] = tested on: SF-268 CNS
# [7] = tested on: NCI-H23 lung
# [8] = tested on: KM12 colon
# [9] = tested on: NCI-H522 lung
# [10] = tested on: 786-0 renal
# [11] = tested on: UO-31 renal
# [12] = tested on: HOP-62 NSCLC
# [13] = tested on: RPMI-8226 leukemia
# [14] = tested on: UACC-257 melanoma
# [15] = tested on: CCRF-CEM leukemia
# [16] = tested on: IGROV1 ovarian
# [17] = tested on: SK-OV-3 ovarian
# [18] = tested on: M14 melanoma
# [19] = tested on: U251 CNS
# [20] = tested on: MCF7 breast
# [21] = tested on: SF-539 CNS
# [22] = tested on: MOLT-4 leukemia
# [23] = tested on: MDA-MB-435
# [24] = tested on: HT29 colon
# [25] = tested on: ACHN renal
# [26] = tested on: COLO 205 colon
# [27] = tested on: SNB-75 CNS
# [28] = tested on: SN12C renal
structure (smiles),measurement,setting,value
CN(C)CCCNCc1ccc(-c2ccc(F)c(Cl)c2)o1,GI50,[1],3.06 µM
same,TGI,[1],10.2 µM
same,GI50,[2],16 µM
same,TGI,[2],33.5 µM
same,GI50,[3],3.22 µM
same,TGI,[3],18.7 µM
same,GI50,[4],10.3 µM
same,TGI,[4],26.8 µM
same,GI50,[5],13 µM
same,TGI,[5],25.9 µM
same,GI50,[6],12.1 µM
same,TGI,[6],24.8 µM
same,GI50,[7],14.7 µM
same,TGI,[7],31.5 µM
same,GI50,[8],14.5 µM
same,TGI,[8],29.2 µM
same,GI50,[9],13.6 µM
same,TGI,[9],30 µM
same,GI50,[10],10.8 µM
same,TGI,[10],23.7 µM
same,GI50,[11],12.3 µM
same,TGI,[11],26.9 µM
same,GI50,[12],14.5 µM
same,TGI,[12],28.2 µM
same,GI50,[13],10.7 µM
same,TGI,[13],29.9 µM
same,GI50,[14],3.81 µM
same,TGI,[14],13.8 µM
same,GI50,[15],9.71 µM
same,TGI,[15],26.3 µM
same,GI50,[16],13.5 µM
same,TGI,[16],32.2 µM
same,GI50,[17],16.9 µM
same,TGI,[17],31.1 µM
same,GI50,[18],7.2 µM
same,TGI,[18],22 µM
same,GI50,[19],14.4 µM
same,TGI,[19],30.7 µM
same,GI50,[20],10.1 µM
same,TGI,[20],23.4 µM
same,GI50,[21],12.9 µM
same,TGI,[21],27.9 µM
same,GI50,[22],11.5 µM
same,TGI,[22],28 µM
same,GI50,[23],5.58 µM
same,TGI,[23],20.5 µM
same,GI50,[24],6.18 µM
same,TGI,[24],20.4 µM
same,GI50,[25],15.9 µM
same,TGI,[25],32.7 µM
same,GI50,[26],4.52 µM
same,TGI,[26],15.5 µM
same,GI50,[27],1.23 µM
same,TGI,[27],18.1 µM
same,GI50,[28],12.1 µM
same,TGI,[28],26.6 µM
